# Experimental data published in patent publication US5545618A, “GLP-1 analogs useful for diabetes treatment” (priority 1993, dated 1996).
# Like-named read-outs stand apart in the source and are kept apart here.
# Key:
# [1] = degradation in plasma by RP-HPLC; assay type: in vitro ADME; conditions: incubation in plasma for 60 minutes; also: key: +: degradation was not observed; -: was complete after this time
# Procedure: In this assay, the analog is added to plasma for various times and recovered similarly to the method described above for radiolabel sequencing analysis. Specifically, the analog at a concentration of 100 nM in RIA buffer is spiked into 1 mL plasma to a final concentration of 1 nM and after incubation in 37° C. circulating water bath for various preset times, the reaction is stopped by bringing the plasma to 0.1% (w/v) in bacitracin.
# The peptides are then purified by Sep-Pak extraction as described above. The eluates are concentrated to about 1 mL on a Speed-vac, diluted with 1 mL distilled water, frozen at 80° C. and lyophilized overnight. The powder is resuspended in 0.5 mL Buffer C (0.1% TFA in water) per mL starting plasma and 0.25 mL are injected on a Hewlett-Packard 109OL liquid chromatograph using an Alltech C18 column (0.45×25 cm; 10 μm particle size) with a Brownlee 2 cm C18 guard column. The extraction is monitored at OD214 throughout the run and the solvent flow rate was 1 mL/minute. A gradient between Buffer C and Buffer D (0.1% TFA in acetonitrile) is set up over a 40 minute run time. The gradient starts at 35% D is held for the first 2 minutes after injection and then increased to 42% D over 24 minutes. The gradient is then increased to 60% D over the next two minutes, held at this level for 2 minutes and returned to 35% D over the next 2 minutes. The % D remains at 35% for the remaining 8 minutes of the run. Fractions are collected at 0.5 minute intervals for the first 30 minutes of each run and dried in a Speed-vac.
# [2] = test system: RIN 1046-38 cells
# Procedure: An additional test for potency of the compounds of the invention measures their ability to stimulate cAMP production in RIN 1046-38 cells. This assay can be conducted as follows:
# On day 1, 5×10^5 RIN 1046-38 cells (Drucker, D. J., et al., Proc Natl Acad Sci USA (1987) 84:3434-3438) are seeded into individual wells of 6-well dishes with 2.5 mL M199 culture medium. On day 4, cells are re-fed with fresh medium and on day 5 the assay is performed. […] Assays are only performed on cell passage ≤24.
# At time -60 min, monolayers are washed twice with 2.5 mL PBS, and medium is changed to 1.0 mL of DMEM medium plus 4.5 g/l glucose and 0.1% BSA (assay medium). At 0 time, medium is aspirated and fresh assay medium, 1.0 mL, containing test compound is added. Test compound is added in 50 ul volume of PBS plus 0.1% BSA; controls are added in vehicle alone. Incubation is continued for 0 to 60 min.
# At termination, conditioned medium and monolayer are harvested to measure both extra- and intracellular cAMP content. For extracellular measurement, medium is removed and centrifuged to remove any cellular debris. For intracellular determination, after medium removal, 1.0 mL of ice cold 95% ethanol is added to monolayer. Cells are collected by scraping, lysed by two cycles of quick freeze/thawing using liquid N2, and cell debris then removed by centrifugation. Aliquots (1/40th well content) of conditioned medium and ethanol cell extract are measured in duplicate for cAMP levels using an RIA kit by the acetylated protocol.
# Insulin secretion can also be measured by the method described by Holst, J. J., et al. FEBS Letters (1987) 211:169-174 (supra). Also useful as an assay for insulinotropic effect is the measurement of stimulation of adenylate cyclase in the RIN 1046-38 cell line. Drucker, D. J. et al., Proc Natl Acad Sci USA (1987) 84:3434-3438 (supra).
Resistance to Degradation [1],Compound,ED50 nM Duplicate Assays (first value) [2],ED50 nM Duplicate Assays (second value) [2],other results
-,CC[C@H](C)[C@H](NC(=O)[C@H](Cc1ccccc1)NC(=O)[C@H](CCC(=O)O)NC(=O)[C@H](CCCCN)NC(=O)[C@H](C)NC(=O)[C@H](C)NC(=O)[C@H](CCC(N)=O)NC(=O)CNC(=O)[C@H](CCC(=O)O)NC(=O)[C@H](CC(C)C)NC(=O)[C@H](Cc1ccc(O)cc1)NC(=O)[C@H](CO)NC(=O)[C@H](CO)NC(=O)[C@@H](NC(=O)[C@H](CC(=O)O)NC(=O)[C@H](CO)NC(=O)[C@@H](NC(=O)[C@H](Cc1ccccc1)NC(=O)[C@@H](NC(=O)CNC(=O)[C@H](CCC(=O)O)NC(=O)[C@H](C)NC(=O)[C@@H](N)CCCCN)[C@@H](C)O)[C@@H](C)O)C(C)C)C(=O)N[C@@H](C)C(=O)N[C@@H](Cc1c[nH]c2ccccc12)C(=O)N[C@@H](CC(C)C)C(=O)N[C@H](C(=O)N[C@@H](CCCCN)C(=O)NCC(=O)N[C@@H](CCCNC(=N)N)C(=O)NCC(=O)O)C(C)C [(K)^7 -GLP-1(7-37)],,,
+,CC[C@H](C)[C@H](NC(=O)[C@H](Cc1ccccc1)NC(=O)[C@H](CCC(=O)O)NC(=O)[C@H](CCCCN)NC(=O)[C@H](C)NC(=O)[C@H](C)NC(=O)[C@H](CCC(N)=O)NC(=O)CNC(=O)[C@H](CCC(=O)O)NC(=O)[C@H](CC(C)C)NC(=O)[C@H](Cc1ccc(O)cc1)NC(=O)[C@H](CO)NC(=O)[C@H](CO)NC(=O)[C@@H](NC(=O)[C@H](CC(=O)O)NC(=O)[C@H](CO)NC(=O)[C@@H](NC(=O)[C@H](Cc1ccccc1)NC(=O)[C@@H](NC(=O)CNC(=O)[C@H](CCC(=O)O)NC(=O)[C@H](C)NC(=O)[C@H](Cc1c[nH]cn1)NC(C)=O)[C@@H](C)O)[C@@H](C)O)C(C)C)C(=O)N[C@@H](C)C(=O)N[C@@H](Cc1c[nH]c2ccccc12)C(=O)N[C@@H](CC(C)C)C(=O)N[C@H](C(=O)N[C@@H](CCCCN)C(=O)NCC(=O)N[C@@H](CCCNC(=N)N)C(=O)NCC(=O)O)C(C)C [(N-acetyl-H)^7 -GLP-1(7-37)],,,
+,CC[C@H](C)[C@H](NC(=O)[C@H](Cc1ccccc1)NC(=O)[C@H](CCC(=O)O)NC(=O)[C@H](CCCCN)NC(=O)[C@H](C)NC(=O)[C@H](C)NC(=O)[C@H](CCC(N)=O)NC(=O)CNC(=O)[C@H](CCC(=O)O)NC(=O)[C@H](CC(C)C)NC(=O)[C@H](Cc1ccc(O)cc1)NC(=O)[C@H](CO)NC(=O)[C@H](CO)NC(=O)[C@@H](NC(=O)[C@H](CC(=O)O)NC(=O)[C@H](CO)NC(=O)[C@@H](NC(=O)[C@H](Cc1ccccc1)NC(=O)[C@@H](NC(=O)CNC(=O)[C@H](CCC(=O)O)NC(=O)[C@H](C)NC(=O)[C@H](CCCCN)NC(C)=O)[C@@H](C)O)[C@@H](C)O)C(C)C)C(=O)N[C@@H](C)C(=O)N[C@@H](Cc1c[nH]c2ccccc12)C(=O)N[C@@H](CC(C)C)C(=O)N[C@H](C(=O)N[C@@H](CCCCN)C(=O)NCC(=O)N[C@@H](CCCNC(=N)N)C(=O)NCC(=O)O)C(C)C [(N-acetyl-K)^7 GLP-1 (7-37)],,,
+,"CC[C@H](C)[C@H](NC(=O)[C@H](Cc1ccccc1)NC(=O)[C@H](CCC(=O)O)NC(=O)[C@H](CCCCN)NC(=O)[C@H](C)NC(=O)[C@H](C)NC(=O)[C@H](CCC(N)=O)NC(=O)CNC(=O)[C@H](CCC(=O)O)NC(=O)[C@H](CC(C)C)NC(=O)[C@H](Cc1ccc(O)cc1)NC(=O)[C@H](CO)NC(=O)[C@H](CO)NC(=O)[C@@H](NC(=O)[C@H](CC(=O)O)NC(=O)[C@H](CO)NC(=O)[C@@H](NC(=O)[C@H](Cc1ccccc1)NC(=O)[C@@H](NC(=O)CNC(=O)[C@H](CCC(=O)O)NC(=O)[C@H](C)NC(=O)[C@H](Cc1c[nH]cn1)NC(C)C)[C@@H](C)O)[C@@H](C)O)C(C)C)C(=O)N[C@@H](C)C(=O)N[C@@H](Cc1c[nH]c2ccccc12)C(=O)N[C@@H](CC(C)C)C(=O)N[C@H](C(=O)N[C@@H](CCCCN)C(=O)NCC(=O)N[C@@H](CCCNC(=N)N)C(=O)NCC(=O)O)C(C)C [(N-isopropyl-H)^7 GLP-1(7-37), (N-isopropyl-H)^7 -GLP-1(7-37)]",,,
,CC[C@H](C)[C@H](NC(=O)[C@H](Cc1ccccc1)NC(=O)[C@H](CCC(=O)O)NC(=O)[C@H](CCCCN)NC(=O)[C@H](C)NC(=O)[C@H](C)NC(=O)[C@H](CCC(N)=O)NC(=O)CNC(=O)[C@H](CCC(=O)O)NC(=O)[C@H](CC(C)C)NC(=O)[C@H](Cc1ccc(O)cc1)NC(=O)[C@H](CO)NC(=O)[C@H](CO)NC(=O)[C@@H](NC(=O)[C@H](CC(=O)O)NC(=O)[C@H](CO)NC(=O)[C@@H](NC(=O)[C@H](Cc1ccccc1)NC(=O)[C@@H](NC(=O)CNC(=O)[C@H](CCC(=O)O)NC(=O)[C@H](C)NC(=O)[C@H](Cc1c[nH]cn1)NC(=O)[C@H](CCCNC(=N)N)NC(=O)[C@H](CCC(=O)O)NC(=O)[C@H](Cc1ccccc1)NC(=O)[C@H](CCC(=O)O)NC(=O)[C@H](CC(=O)O)NC(=O)[C@@H](N)Cc1c[nH]cn1)[C@@H](C)O)[C@@H](C)O)C(C)C)C(=O)N[C@@H](C)C(=O)N[C@@H](Cc1c[nH]c2ccccc12)C(=O)N[C@@H](CC(C)C)C(=O)N[C@H](C(=O)N[C@@H](CCCCN)C(=O)NCC(=O)N[C@@H](CCCNC(=N)N)C(=O)NCC(=O)O)C(C)C [GLP-1(1-37)],> 1000 nM,2900 nM,
,CC[C@H](C)[C@H](NC(=O)[C@H](Cc1ccccc1)NC(=O)[C@H](CCC(=O)O)NC(=O)[C@H](CCCCN)NC(=O)[C@H](C)NC(=O)[C@H](C)NC(=O)[C@H](CCC(N)=O)NC(=O)CNC(=O)[C@H](CCC(=O)O)NC(=O)[C@H](CC(C)C)NC(=O)[C@H](Cc1ccc(O)cc1)NC(=O)[C@H](CO)NC(=O)[C@H](CO)NC(=O)[C@@H](NC(=O)[C@H](CC(=O)O)NC(=O)[C@H](CO)NC(=O)[C@@H](NC(=O)[C@H](Cc1ccccc1)NC(=O)[C@@H](NC(=O)CNC(=O)[C@H](CCC(=O)O)NC(=O)[C@H](C)NC(=O)[C@H](Cc1c[nH]cn1)NC(=O)[C@H](CCCNC(=N)N)NC(=O)[C@H](CCC(=O)O)NC(=O)[C@H](Cc1ccccc1)NC(=O)[C@@H](N)CCC(=O)O)[C@@H](C)O)[C@@H](C)O)C(C)C)C(=O)N[C@@H](C)C(=O)N[C@@H](Cc1c[nH]c2ccccc12)C(=O)N[C@@H](CC(C)C)C(=O)N[C@H](C(=O)N[C@@H](CCCCN)C(=O)NCC(=O)N[C@@H](CCCNC(=N)N)C(=O)NCC(=O)O)C(C)C [GLP-1(3-37)],70 nM,81 nM,
,CC[C@H](C)[C@H](NC(=O)[C@H](Cc1ccccc1)NC(=O)[C@H](CCC(=O)O)NC(=O)[C@H](CCCCN)NC(=O)[C@H](C)NC(=O)[C@H](C)NC(=O)[C@H](CCC(N)=O)NC(=O)CNC(=O)[C@H](CCC(=O)O)NC(=O)[C@H](CC(C)C)NC(=O)[C@H](Cc1ccc(O)cc1)NC(=O)[C@H](CO)NC(=O)[C@H](CO)NC(=O)[C@@H](NC(=O)[C@H](CC(=O)O)NC(=O)[C@H](CO)NC(=O)[C@@H](NC(=O)[C@H](Cc1ccccc1)NC(=O)[C@@H](NC(=O)CNC(=O)[C@H](CCC(=O)O)NC(=O)[C@H](C)NC(=O)[C@H](Cc1c[nH]cn1)NC(=O)[C@H](CCCNC(=N)N)NC(=O)[C@H](CCC(=O)O)NC(=O)[C@@H](N)Cc1ccccc1)[C@@H](C)O)[C@@H](C)O)C(C)C)C(=O)N[C@@H](C)C(=O)N[C@@H](Cc1c[nH]c2ccccc12)C(=O)N[C@@H](CC(C)C)C(=O)N[C@H](C(=O)N[C@@H](CCCCN)C(=O)NCC(=O)N[C@@H](CCCNC(=N)N)C(=O)NCC(=O)O)C(C)C [GLP-1(4-37)],130 nM,200 nM,
,CC[C@H](C)[C@H](NC(=O)[C@H](Cc1ccccc1)NC(=O)[C@H](CCC(=O)O)NC(=O)[C@H](CCCCN)NC(=O)[C@H](C)NC(=O)[C@H](C)NC(=O)[C@H](CCC(N)=O)NC(=O)CNC(=O)[C@H](CCC(=O)O)NC(=O)[C@H](CC(C)C)NC(=O)[C@H](Cc1ccc(O)cc1)NC(=O)[C@H](CO)NC(=O)[C@H](CO)NC(=O)[C@@H](NC(=O)[C@H](CC(=O)O)NC(=O)[C@H](CO)NC(=O)[C@@H](NC(=O)[C@H](Cc1ccccc1)NC(=O)[C@@H](NC(=O)CNC(=O)[C@H](CCC(=O)O)NC(=O)[C@H](C)NC(=O)[C@H](Cc1c[nH]cn1)NC(=O)[C@H](CCCNC(=N)N)NC(=O)[C@@H](N)CCC(=O)O)[C@@H](C)O)[C@@H](C)O)C(C)C)C(=O)N[C@@H](C)C(=O)N[C@@H](Cc1c[nH]c2ccccc12)C(=O)N[C@@H](CC(C)C)C(=O)N[C@H](C(=O)N[C@@H](CCCCN)C(=O)NCC(=O)N[C@@H](CCCNC(=N)N)C(=O)NCC(=O)O)C(C)C [GLP-1(5-37)],150 nM,,
,gastric inhibitory peptide [GIP],,,"ED50 nM Duplicate Assays (first value) ([2]; cAMP stimulation in RIN 1046-38 cells, first of duplicate assays): 10.0 nM; ED50 nM Duplicate Assays (second value) ([2]; cAMP stimulation in RIN 1046-38 cells, second of duplicate assays): 37.5 nM"
